Experimental data as given in publication PMC6384730, “Systematic Identification of Thiosemicarbazides for Inhibition of Toxoplasma gondii Growth In Vitro” (Molecules, 2019).
≈ marks a conversion by molar mass, not a printed value. Where “and” joins values, the source holds several entries; their conditions need not be identical. Equal entries are not always repeated. Where two headings read alike, the source gives them in different places.

What was measured:
T. gondii RH tachyzoites = experiment: Influence on T. gondii proliferation ([3H]uracil incorporation) in infected Vero cells; assay type: cell-based, Toxoplasma gondii; details: for IC50: Toxoplasma gondii, Vero
Description: Vero cell line (African green monkey kidney) (ATCC® CCL-81™) were maintained in EMEM (EMEM/10%HIFBS/P/S) (Eagle’s Minimum Essential Medium—ATCC® 30-2003™) culture medium supplemented with 10% HIFBS (Heat-Inactivated (1 h in 56°C) Fetal Bovine Serum—ATCC), 100 U/mL penicillin, 100 μg/mL streptomycin. The cell line was trypsinized (using Trypsin-EDTA Solution, 1X ATCC® 30-2101™) twice a week, and seeded at density 1 × 10^6 per T25 cell culture flask (Falcon), and incubated for 24–48 h at 37 °C and 5 CO2 to achieve a confluent monolayer. The highly virulent RH strain of Toxoplasma gondii, haplogroup I (ATCC® PRA-310™) were maintained as tachyzoites according to the ATCC product sheet, in DMEM (Dulbecco’s Modified Eagle’s Medium—ATCC® 30-2002™) (DMEM/3%HIFBS/P/S—parasite culture medium) under condition 37 °C and 5 CO2 and passage twice per week.
The Vero cells were seeded on 96-well plates (1 × 10^5 cells/100 µL/well) in EMEM/10%HIFBS/P/S. After 24 h of incubation medium was removed and then T. gondii RH tachyzoites were added to the cell monolayers at density 1 × 10^5 cells/100 µL/well in DMEM/3%HIFBS/P/S. One hour later different compounds and sulfadiazine dilutions (100 µL/well) in parasite culture medium were added to the cell monolayers with T. gondii. After subsequent 24 h of incubation 1 µCi/well [5,6-^3H] uracil (Moravek Biochemicals Inc., Brea, CA, USA) was applied to each microculture for further 72 h. The amount of the isotope incorporated into the parasite nucleic acid pool, corresponding to the parasite growth, was measured by liquid scintillation counting using 1450 Microbeta Plus Liquid Scintillation Counter (Wallac Oy, Turku, Finland). The results were expressed as counts per minute (CPM) and transformed to the percentage of viability compared to untreated cells. All experiments were performed in triplicate.

[1] = MTT cell viability (cytotoxicity) assay on L929 cells; assay type: cell-based, mouse; details: mouse, 24 h, % of untreated cells; for viability at 24 h, 62.5 µg/mL: 62.50 µg/mL
Description: (§1) Cells were trypsinized twice a week, and seeded at density 1 × 10^6 per T25 cell culture flask, and incubated for 24-48 h at 37 °C and 10% CO2 to achieve a confluent monolayer. […] The final concentration of DMSO in compounds dilutions was not higher than 1.00%. […] Dilution of the all compounds 2-22 and drug were freshly prepared before the cells were exposed. […] The MTT assay was used according to international standards: ISO 10993-5:2009(E), Biological evaluation of medical devices, Part 5: Tests for in vitro cytotoxicity. […] Afterward, the culture medium in the plates was replaced by 100 μL of compounds and sulfadiazine suspension and the cells were exposed for 24 h. Then, 1 mg/mL of MTT solution in RPMI 1640 without phenol red was prepared and 50 μL of the solution was added to each well and incubated at 37 °C, 10% CO2 for 2 h. Mitochondrial dehydrogenases of viable cells reduced the yellowish water-soluble MTT to water-insoluble formazan crystals, which were solubilized with dimethyl sulfoxide (DMSO). The cell culture medium was aspirated cautiously, after which 150 μL DMSO was added to each well, the plates were gently mixed, then 25 μL 0.1 M glycine buffer (pH = 10.5) (Sigma) was added. Optical density was read on the ELISA reader (Multiskan EX, Labsystems, Vienna, VA, USA) at 570 nm. The results were expressed as the percentage of viability compared to untreated cells. All experiments were performed in triplicate. Moreover, cells were treated with 4.0-0.03% concentration of DMSO as a compounds solvent (data not shown).

L929 cells = experiment: as above; assay type: cell-based, mouse; details: L929 cells, 24 h exposure
Description: as §1

[2] = RH tachyzoites in Vero cells, [3H]uracil incorporation, highest concentration tested 125 µg/mL, read-out: IC50 (50% inhibition of T. gondii proliferation in vitro)
[3] = IC50 greater than 125 µg/mL (highest concentration tested), calculated by extrapolation of the curves (GraphPad Prism), read-out: IC50 (50% inhibition of T. gondii proliferation in vitro), extrapolated

Compound | melting point [°C] | IC50 (T. gondii RH tachyzoites; [2]) [µg/mL] | viability at 24 h, 3.91 µg/mL ([1]; L929 mouse fibroblast cells) [%] | viability at 24 h, 7.81 µg/mL ([1]; L929 mouse fibroblast cells) [%] | viability at 24 h, 15.63 µg/mL ([1]; L929 mouse fibroblast cells) [%] | viability at 24 h, 31.25 µg/mL ([1]; L929 mouse fibroblast cells) [%] | viability at 24 h, 62.5 µg/mL ([1]; L929 mouse fibroblast cells) [%] | viability at 24 h, 125 µg/mL ([1]; L929 mouse fibroblast cells) [%] | viability at 24 h, 250 µg/mL ([1]; L929 mouse fibroblast cells) [%] | viability at 24 h, 500 µg/mL ([1]; L929 mouse fibroblast cells) [%] | CC30 (concentration required for 30% cells proliferation inhibition) (L929 cells) | also measured
Cc1nc[nH]c1C(=O)NNC(=S)Nc1ccccc1[N+](=O)[O-] [Compound 2, 1-(4-Methylimidazol-5-oyl)-4-(2-nitrophenyl)thiosemicarbazide] | 215 to 217 | 43 (≈ 134 µM) | 103 | 101 | 96.7 | 94.6 | 89.7 | 75.3 | 53.4 | 29.1 | 181.55 µg/mL | 
Cc1nc[nH]c1C(=O)NNC(=S)Nc1ccc([N+](=O)[O-])cc1 [Compound 4, 1-(4-Methylimidazol-5-oyl)-4-(4-nitrophenyl)thiosemicarbazide] | 235 to 237 | 21.6 (≈ 67.5 µM) | 98.5 | 95.7 | 95.1 | 93.1 | 88.9 | 79.6 | 66.9 | 23.2 | 238.78 µg/mL | fold more potent than sulfadiazine (T. gondii RH tachyzoites; T. gondii proliferation, IC50 ratio): 184 fold
COc1cccc(NC(=S)NNC(=O)c2[nH]cnc2C)c1 [Compound 6, 4-(3-Methoxyphenyl)-1-(4-methylimidazol-5-oyl)thiosemicarbazide] | 196 to 198 | 79.7 (≈ 261 µM) | 92.8 | 88.6 | 86.2 | 83.3 | 79.7 | 68.8 | 67.3 | 56.8 | 165.96 µg/mL | 
Cc1nc[nH]c1C(=O)NNC(=S)NCCCl [Compound 9] | 175 to 177 |  |  |  |  |  |  |  |  |  | >500.00 µg/mL and >500 µg/mL | IC50 (T. gondii RH tachyzoites; read-out: IC50 (50% inhibition of T. gondii proliferation in vitro)): > 125 µg/mL; viability at 24 h, 3.91 µg/mL [1]: 100%; viability at 24 h, 7.81 µg/mL [1]: 98.3%; viability at 24 h, 15.63 µg/mL [1]: 97.1%; viability at 24 h, 31.25 µg/mL [1]: 96%; viability at 24 h, 62.5 µg/mL [1]: 95.6%; viability at 24 h, 125 µg/mL [1]: 94.4%; viability at 24 h, 250 µg/mL [1]: 92.8%; viability at 24 h, 500 µg/mL [1]: 87.4%
CCOc1ccc(NC(=S)NNC(=O)c2[nH]cnc2C)cc1 [Compound 21, 4-(4-Ethoxyphenyl)-1-(4-methylimidazol-5-oyl)thiosemicarbazide] |  | 95.3 (≈ 298 µM) | 115 | 114 | 112 | 106 | 101 | 84.3 | 82.3 | 72 | 500.00 µg/mL and 500 µg/mL | 

Second part, led by results:

melting point [°C] | Compound | IC50 (T. gondii RH tachyzoites; [2]) [µg/mL] | viability at 24 h, 3.91 µg/mL ([1]; L929 mouse fibroblast cells) [%] | viability at 24 h, 7.81 µg/mL ([1]; L929 mouse fibroblast cells) [%] | viability at 24 h, 15.63 µg/mL ([1]; L929 mouse fibroblast cells) [%] | viability at 24 h, 31.25 µg/mL ([1]; L929 mouse fibroblast cells) [%] | viability at 24 h, 62.5 µg/mL ([1]; L929 mouse fibroblast cells) [%] | viability at 24 h, 125 µg/mL ([1]; L929 mouse fibroblast cells) [%] | viability at 24 h, 250 µg/mL ([1]; L929 mouse fibroblast cells) [%] | viability at 24 h, 500 µg/mL ([1]; L929 mouse fibroblast cells) [%] | CC30 (concentration required for 30% cells proliferation inhibition) (L929 cells) | also measured
203 to 205 | Cc1nc[nH]c1C(=O)NNC(=S)Nc1cccc(Cl)c1 [Compound 10, 4-(3-Chlorophenyl)-1-(4-methylimidazol-5-oyl)thiosemicarbazide] | 25.7 (≈ 83 µM) | 95.7 | 94.1 | 93.5 | 74.6 | 72.1 | 69.9 | 61.8 | 22.1 | 112.20 µg/mL | 
191 to 192 | Cc1nc[nH]c1C(=O)NNC(=S)Nc1cccc(F)c1 [Compound 11, 4-(3-Fluorophenyl)-1-(4-methylimidazol-5-oyl)thiosemicarbazide] | ~118 (≈ 402 µM) | 104 | 101 | 99.8 | 92.7 | 75.6 | 66 | 57.8 | 46.3 | 95.50 µg/mL | 
223 to 225 | COc1ccc(NC(=S)NNC(=O)c2[nH]cnc2C)cc1OC [Compound 13, 4-(3,4-Dimethoxyphenyl)-1-(4-methylimidazol-5-oyl)thiosemicarbazide] |  | 107 | 105 | 103 | 99.8 | 97.5 | 95.7 | 94.2 | 77 | >500.00 µg/mL and >500 µg/mL | IC50 (T. gondii RH tachyzoites; [3]): ~175 µg/mL (≈ 522 µM)
213 to 215 | Cc1ccc(NC(=S)NNC(=O)c2[nH]cnc2C)cc1Cl [Compound 14, 4-(3-Chloro-4-methylphenyl)-1-(4-methylimidazol-5-oyl)thiosemicarbazide] | 18.6 (≈ 57.5 µM) | 101 | 91.5 | 76.6 | 67.5 | 61.5 | 49.3 | 21.1 | 10.4 | 28.18 µg/mL | 
210 to 212 | Cc1ccccc1NC(=S)NNC(=O)c1[nH]cnc1C [Compound 16, 1-(4-Methylimidazol-5-oyl)-4-(2-methylphenyl)thiosemicarbazide] |  | 103 | 102 | 100 | 93.8 | 91.2 | 79.7 | 71.5 | 63.4 | 288.40 µg/mL | IC50 (T. gondii RH tachyzoites; [3]): ~150 µg/mL (≈ 519 µM)
193 to 195 | Cc1cccc(NC(=S)NNC(=O)c2[nH]cnc2C)c1 [Compound 17, 1-(4-Methylimidazol-5-oyl)-4-(3-methylphenyl)thiosemicarbazide] | 37.1 (≈ 128 µM) | 94.1 | 88.7 | 85.7 | 74.8 | 64.9 | 56.5 | 50 | 40.7 | 50.12 µg/mL | 
215 to 217 | Cc1nc[nH]c1C(=O)NNC(=S)Nc1ccc(N(C)C)cc1 [Compound 19, 1-(4-Methylimidazol-5-oyl)-4-(4-dimethyloaminophenyl)thiosemicarbazide] |  | 93.1 | 91.8 | 85.7 | 80.8 | 78.6 | 68.5 | 60.8 | 53.3 | 112.20 µg/mL | IC50 (T. gondii RH tachyzoites; [3]): ~165 µg/mL (≈ 517 µM)
225 to 227 | CCN(CC)c1ccc(NC(=S)NNC(=O)c2[nH]cnc2C)cc1 [Compound 20, 1-(4-Methylimidazol-5-oyl)-4-(4-diethyloaminophenyl)thiosemicarbazide] | 25.7 (≈ 74.2 µM) | 102 | 93.6 | 85.7 | 71.3 | 67.9 | 66 | 53.4 | 12.9 | 63.10 µg/mL | 
